One experiment has as its system HCV replicon 1a 1A7. Kind of experiment: Cell-based HCV replicon assay, genotype 1a 1A7. Conditions: Hepatitis C virus, 72 h; replicon cells, genotype 1a 1A7, replicon RNA by Taqman on day 3. The method, then: (§1) To measure cell-based anti-HCV activity of selected compounds of the present invention, the following replicon assay can be used.
(§2) Replicon cells are seeded at 5000 cells/well in 96-well collagen I-coated Nunc plates in the presence of the test compound. Various concentrations of test compound, typically in 10 serial 2-fold dilutions, are added to the assay mixture, with the starting concentration ranging from 10 μM to 0.001 μM. The final concentration of DMSO should be about 0.5%, and the final concentration of fetal bovine serum should be about 5%, in the assay media. Cells are harvested on day 3 by the addition of 1× cell lysis buffer (Ambion cat #8721). The replicon RNA level is then measured (using, for example, the real time PCR (Taqman assay)). The amplicon is located in 5B. The PCR primers are: 5B.2F, ATGGACAGGCGCCCTGA (SEQ ID NO. 1); 5B.2R, […] (SEQ ID NO. 2); the probe sequence is FAM-labeled CACGCCATGCGCTGCGG (SEQ ID NO. 3). […] Alternatively, to quantitate the absolute amount of replicon RNA, a standard curve can be established by including serially diluted T7 transcripts of replicon RNA in the Taqman assay. […]
(§3) HCV replicon assay data was calculated for various genotypes for selected compounds of the present invention using this method and is provided in the table below.

Another experiment concerns HCV replicon 1b c16. Kind of experiment: Cell-based HCV replicon assay, genotype 1b c16. Conditions: Hepatitis C virus, 72 h; replicon cells, genotype 1b c16, replicon RNA by Taqman on day 3. The method, then: as §1
Replicon cells are seeded at 5000 cells/well in 96-well collagen I-coated Nunc plates in the presence of the test compound. Various concentrations of test compound, typically in 10 serial 2-fold dilutions, are added to the assay mixture, with the starting concentration ranging from 10 μM to 0.001 μM. The final concentration of DMSO should be about 0.5%, and the final concentration of fetal bovine serum should be about 5%, in the assay media. Cells are harvested on day 3 by the addition of 1× cell lysis buffer (Ambion cat #8721). The replicon RNA level is then measured (using, for example, the real time PCR (Taqman assay)). The amplicon is located in 5B. The PCR primers are: 5B.2F, ATGGACAGGCGCCCTGA (SEQ ID NO. 1); 5B.2R, […] (SEQ ID NO. 2); the probe sequence is FAM-labeled CACGCCATGCGCTGCGG (SEQ ID NO. 3). GAPDH RNA is to be used as endogenous control and is amplified in the same reaction as NS5B (multiplex PCR) using the primers and the VIC-labeled probe recommended by the manufacturer (PE Applied Biosystems). The real-time RT-PCR reactions can be run on an ABI PRISM 7900HT Sequence Detection System using the following program: 48° C. for 30 minutes, 95° C. for 10 minutes, 40 cycles of 95° C. for 15 sec, 60° C. for 1 minute. The ΔCT values (CT5B-CTGAPDH) are then plotted against the concentration of test compound and fitted to the sigmoid dose-response model using XLfit4 (MDL). EC50 is defined as the concentration of inhibitor necessary to achieve ΔCT=1 over the projected baseline; EC90 is defined as the concentration necessary to achieve ΔCT=3.2 over the baseline. Alternatively, to quantitate the absolute amount of replicon RNA, a standard curve can be established by including serially diluted T7 transcripts of replicon RNA in the Taqman assay. […]
as §3

A further experiment concerns HCV replicon 2a JFH. Kind of experiment: Cell-based HCV replicon assay, genotype 2a JFH. Conditions: Hepatitis C virus, 72 h, replicon cells, replicon RNA by Taqman on day 3. The method, then: as §1, §2, §3
A further experiment deals with HCV replicon 1b Y93H. The experiment can be described thus: Cell-based HCV replicon assay, genotype 1b Y93H. Conditions: Hepatitis C virus, 72 h, read-out: EC50 1b Y93H. The method, then: as §1, §2, §3
Background: A replicon is a self-replicating genome or part of one, used to study replication in cells.

The structures appear in SMILES notation.

Take `COC(=O)N[C@H](C(=O)N1CCC[C@@H]1c1ncc(-c2ccc(C#Cc3ccc4nc([C@@H]5CCCN5C(=O)[C@@H](NC(=O)OC)C(C)C)[nH]c4c3)cc2)[nH]1)C(C)C` [Compound 56]: the half-maximal effective concentration (EC50) – broadly, the concentration at which the effect is half-maximal – in the experiment with HCV replicon 1a 1A7 is 0.3 nM; with HCV replicon 1b c16 it was 0.016 nM; in the experiment on HCV replicon 2a JFH, 0.3 nM; in the experiment with HCV replicon 1b Y93H it was 5 nM.

For `COC(=O)N[C@@H](C(=O)N1CCC[C@@H]1c1ncc(-c2ccc(C#Cc3ccc4nc([C@@H]5CCCN5C(=O)[C@H](NC(=O)OC)c5ccccc5)[nH]c4c3)cc2)[nH]1)c1ccccc1` [Compound 57], the EC50 in the experiment on HCV replicon 1a 1A7 worked out at 0.41 nM; with HCV replicon 1b c16, 0.001 nM; with HCV replicon 2a JFH, 0.019 nM; in the experiment on HCV replicon 1b Y93H it was 0.5 nM.

`CC(C)(C)OC(=O)N1CCC[C@H]1c1ncc(-c2ccc(C#Cc3ccc4nc([C@@H]5CCCN5C(=O)OC(C)(C)C)[nH]c4c3)cc2)[nH]1` [Compound 58]: the EC50 in the experiment on HCV replicon 1b c16 was found to be 251 nM.

The values above are taken from US8980920B2, “Antiviral compounds of three linked aryl moieties to treat diseases such as hepatitis C” (Merck Sharp & Dohme Corp., priority 2009, dated 2015).
